Source: US6603046B1, “Bis-aromatic a,β-unsaturated ketones” (Lica Pharmaceuticals A/S, priority 1992, dated 2003)
≈ marks a conversion by molar mass, not a printed value. Where two headings read alike, the source gives them in different places.

Columns and labels:
L. major promastigotes [1] = assay: In vitro growth of L. major promastigotes, 3H-thymidine uptake (Example 4); type: cell-based, Leishmania major; conditions: in vitro L. major growth test
[2] = Rate of the reaction between N-acetyl-L-cysteine and chalcones, HPLC; type: physicochemical; conditions: methanol-water-potassium phosphate buffer pH 7.5, 30° C.; first order
Text: The decline of the chalcone concentration was followed by HPLC. The following experimental setups were used: 1. […] 2. […] This system was used i the case of 4′-methoxychalcone. The rate of decline of the chalcone concentration was followed by HPLC. The rate constant was estimated using Grafit and assuming that the reaction followed first order kinetic; i.e.: [c]=[c0]exp(−kt) where [c] is the concentration of the chalcone in question at time t, [c0] is the concentration of the chalcone in question at time zero, k is the rate constant, and t the time.

[3] = system: chloroquine resistant P. falciparum DD2 strain; assay: In vitro growth of P. falciparum DD2, 3H-hypoxanthine uptake (Example 15); type: cell-based, Plasmodium falciparum; conditions: Plasmodium falciparum, DD2, read-out: concentration in which parasite growth was retarded by 50%
P. yoelii strain YM = P. yoelii strain YM infection in mice, parasitemia and mortality (Example 16); type: in vivo, BALB/c mice
[4] = system: chloroquine-sensitive P. falciparum 3D7A strain; assay: In vitro growth of P. falciparum 3D7A, 3H-hypoxanthine uptake (Example 15); type: cell-based, Plasmodium falciparum
L. major promastigotes [5] = assay: L. major promastigotes from 4-days cultures, 3H-thymidine uptake (Examples 5, 14); type: cell-based, Leishmania major; conditions: Leishmania major, Table 14.1, read-out: percentage inhibition of promastigotes (upper figure)
In short: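 Promastigotes harvested on day 4 of culture were exposed to compound, then pulsed with 100 μC 3H-thymidine for a further 18 h. Cells were collected on filter paper, washed, and incorporated radioactivity counted by scintillation.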

human lymphocytes = assay: Lymphocyte Proliferation Assay, 3H-thymidine incorporation (Example 13); conditions: Homo sapiens, Lymphocyte, read-out: inhibition of lymphocytes (lower figure)
P. falciparum = P. falciparum growth in vitro (Table 14.1, strain not stated); type: cell-based; conditions: Plasmodium falciparum, read-out: inhibition of malaria parasites (middle figure) (converted)
Description: The P. falciparum experimental setup was as described in Example 15.
Testing of the effect of drugs and serum on the in vitro growth of the parasites. The experiments in which compounds were tested for their ability to inhibit parasite growth were performed by a modification of the method originally described by Jensen et al. (1982). Fifty μl of parasitized erythrocytes (parasitemia approximately 1%) in a concentration of 5×10^8/ml and 50 μl of RPMI medium containing different concentrations of the test compound was added to each well of a 96 well flat-bottomed microtiter plate (Nunc). The cultures were then incubated for 48 hours, 24 hours before termination of the culture adding 20 μl of 3-H-hypoxanthine (40 uCi/ml) (New England Nuclear, Boston, Mass., USA) was added to each well. The cultures were then harvested onto glass fiber filters using a Skatron cell harvester (Skatron, Lierbyen, Norway), and the incorporation of 3-H-hypoxanthine into the DNA of dividing parasites was determined by liquid scintillation spectrometry.

[6] = D + 10, i.p. 0.5 mg/kg/day once daily D0-D + 3
[7] = D + 12, i.p. 0.5 mg/kg/day once daily D0-D + 3
[8] = D + 14, i.p. 0.5 mg/kg/day once daily D0-D + 3
[9] = D + 16, i.p. 0.5 mg/kg/day once daily D0-D + 3
[10] = D + 16, i.p. 2.5 mg/kg/day once daily D0-D + 3
[11] = D + 18, i.p. 0.5 mg/kg/day once daily D0-D + 3
[12] = D + 18, i.p. 2.5 mg/kg/day once daily D0-D + 3
[13] = D + 20, i.p. 0.5 mg/kg/day once daily D0-D + 3
[14] = D + 20, i.p. 2.5 mg/kg/day once daily D0-D + 3
[15] = D + 20, i.p. 5 mg/kg/day once daily D0-D + 3

Compound: CC(C)=CCc1c(O)ccc(C(=O)/C=C/c2cc(O)c3c(c2)C=CC(C)(C)O3)c1O [(A)]
- antiparasitic effect in bioassay-guided fractionation (L. major promastigotes [1]): Only the latter compound showed major antiparasitic effects

Compound: O=C(/C=C/c1ccccc1)c1ccccc1 [drawing 102, chalcone, reference compound]
- Estimated rate constant k [2]: 0.034 min⁻¹

Compound: O=C(/C=C/c1ccc(O)cc1)c1ccc(O)cc1 [drawing 105]
- Estimated rate constant k [2]: 0.0020 min⁻¹

Compound: CCN(CC)CCCC(C)Nc1ccnc2cc(Cl)ccc12 (stereo not drawn) [Chloroquine, chloroquine phosphate, reference compound]
- IC50 [3]: 0.075 to 0.15 µg/mL
- % parasitemia (mean ± SEM) (P. yoelii strain YM; D + 4, i.p. 0.5 mg/kg/day once daily D0-D + 3): 0.9 ± 0.5%
- % parasitemia (mean ± SEM) (P. yoelii strain YM; D + 4, i.p. 2.5 mg/kg/day once daily D0-D + 3): 0.2 ± 0.2%
- % parasitemia (mean ± SEM) (P. yoelii strain YM; D + 4, i.p. 5 mg/kg/day once daily D0-D + 3): 0.02 ± 0.04%
- % parasitemia (mean ± SEM) (P. yoelii strain YM; D + 6, i.p. 0.5 mg/kg/day once daily D0-D + 3): 24 ± 8.6%
- % parasitemia (mean ± SEM) (P. yoelii strain YM; D + 6, i.p. 2.5 mg/kg/day once daily D0-D + 3): 2.4 ± 2.2%
- % parasitemia (mean ± SEM) (P. yoelii strain YM; D + 6, i.p. 5 mg/kg/day once daily D0-D + 3): 0%
- % parasitemia (mean ± SEM) (P. yoelii strain YM; D + 8, i.p. 0.5 mg/kg/day once daily D0-D + 3): 57.4 ± 4.2%
- % parasitemia (mean ± SEM) (P. yoelii strain YM; D + 8, i.p. 2.5 mg/kg/day once daily D0-D + 3): 28.3 ± 16.2%
- % parasitemia (mean ± SEM) (P. yoelii strain YM; D + 8, i.p. 5 mg/kg/day once daily D0-D + 3): 0.1 ± 0.17%
- % parasitemia (mean ± SEM) (P. yoelii strain YM; [6]): 66.3 ± 6.6%
- mortality (no. of dead mice/total no. of tested mice) (P. yoelii strain YM; [6]): (2/5)
- % parasitemia (mean ± SEM) (P. yoelii strain YM; D + 10, i.p. 2.5 mg/kg/day once daily D0-D + 3): 33.7 ± 19.8%
- % parasitemia (mean ± SEM) (P. yoelii strain YM; D + 10, i.p. 5 mg/kg/day once daily D0-D + 3): 2.8 ± 2.7%
- % parasitemia (mean ± SEM) (P. yoelii strain YM; [7]): 49.7 ± 17.6%
- mortality (no. of dead mice/total no. of tested mice) (P. yoelii strain YM; [7]): (2/5)
- % parasitemia (mean ± SEM) (P. yoelii strain YM; D + 12, i.p. 2.5 mg/kg/day once daily D0-D + 3): 40.2 ± 21%
- % parasitemia (mean ± SEM) (P. yoelii strain YM; D + 12, i.p. 5 mg/kg/day once daily D0-D + 3): 13 ± 4.4%
- % parasitemia (mean ± SEM) (P. yoelii strain YM; [8]): 35.3 ± 4.7%
- mortality (no. of dead mice/total no. of tested mice) (P. yoelii strain YM; [8]): (2/5)
- % parasitemia (mean ± SEM) (P. yoelii strain YM; D + 14, i.p. 2.5 mg/kg/day once daily D0-D + 3): 37.4 ± 19.8%
- % parasitemia (mean ± SEM) (P. yoelii strain YM; D + 14, i.p. 5 mg/kg/day once daily D0-D + 3): 22.4 ± 6.1%
- % parasitemia (mean ± SEM) (P. yoelii strain YM; [9]): 18.5 ± 19.1%
- mortality (no. of dead mice/total no. of tested mice) (P. yoelii strain YM; [9]): (3/5)
- % parasitemia (mean ± SEM) (P. yoelii strain YM; [10]): 4.7 ± 4.6%
- mortality (no. of dead mice/total no. of tested mice) (P. yoelii strain YM; [10]): (2/5)
- % parasitemia (mean ± SEM) (P. yoelii strain YM; D + 16, i.p. 5 mg/kg/day once daily D0-D + 3): 62.2 ± 24.5%
- % parasitemia (mean ± SEM) (P. yoelii strain YM; [11]): 9%
- mortality (no. of dead mice/total no. of tested mice) (P. yoelii strain YM; [11]): 4/5
- % parasitemia (mean ± SEM) (P. yoelii strain YM; [12]): 0%
- mortality (no. of dead mice/total no. of tested mice) (P. yoelii strain YM; [12]): 2/5
- % parasitemia (mean ± SEM) (P. yoelii strain YM; D + 18, i.p. 5 mg/kg/day once daily D0-D + 3): 75.2 ± 3.3%
- % parasitemia (mean ± SEM) (P. yoelii strain YM; [13]): 0%
- mortality (no. of dead mice/total no. of tested mice) (P. yoelii strain YM; [13]): 4/5
- % parasitemia (mean ± SEM) (P. yoelii strain YM; [14]): 0%
- mortality (no. of dead mice/total no. of tested mice) (P. yoelii strain YM; [14]): 2/5
- % parasitemia (mean ± SEM) (P. yoelii strain YM; [15]): 50 ± 16.4%
- mortality (no. of dead mice/total no. of tested mice) (P. yoelii strain YM; [15]): (1/5)
- IC50 ([4]; Plasmodium falciparum, read-out: concentration in which growth was retarded by 50%): 38 to 75 µg/mL
- Percentage inhibition of 3H-hypoxanthine uptake (mean ± SEM) ([4]; title: percentage inhibition of 3H-hypoxanthine uptake; 38 ng/ml): 34.0 ± 6.1%
- Percentage inhibition of 3H-hypoxanthine uptake (mean ± SEM) ([4]; title: percentage inhibition of 3H-hypoxanthine uptake; 75 ng/ml): 80.2 ± 3.7%
- Percentage inhibition of 3H-hypoxanthine uptake (mean ± SEM) ([4]; title: percentage inhibition of 3H-hypoxanthine uptake; 150 ng/ml): 97.1 ± 1.0%
- Percentage inhibition of 3H-hypoxanthine uptake (mean ± SEM) ([4]; title: percentage inhibition of 3H-hypoxanthine uptake; 300 ng/ml): 98.8 ± 0.3%

Compound: O=C(/C=C/c1ccccc1)c1ccc(O)cc1 [4′-Hydroxychalcone, 4′-hydroxychalcone]
- IC50 ([4]; Plasmodium falciparum; read-out: concentration in which growth was retarded by 50%): 1 to 5 µg/mL (≈ 4.46 to 22.3 µM)
- Percentage inhibition of 3H-hypoxanthine uptake (mean ± SEM) ([4]; title: percentage inhibition of 3H-hypoxanthine uptake; 0.5 μg/ml): 29.9 ± 10.7%
- Percentage inhibition of 3H-hypoxanthine uptake (mean ± SEM) ([4]; title: percentage inhibition of 3H-hypoxanthine uptake; 1 μg/ml): 40.5 ± 11.1%
- Percentage inhibition of 3H-hypoxanthine uptake (mean ± SEM) ([4]; title: percentage inhibition of 3H-hypoxanthine uptake; 5 μg/ml): 64.2 ± 8.5%
- Percentage inhibition of 3H-hypoxanthine uptake (mean ± SEM) ([4]; title: percentage inhibition of 3H-hypoxanthine uptake; 10 μg/ml): 95.5 ± 1.1%
- inhibition at 0.5 µg/mL (L. major promastigotes [5]; 0.5 μg/ml): 26.4 ± 6.5%
- inhibition at 1 µg/mL (L. major promastigotes [5]; 1 μg/ml): 37.3 ± 13.6%
- inhibition at 5 µg/mL (L. major promastigotes [5]; 5 μg/ml): 73.4 ± 15.3%
- inhibition at 10 µg/mL (L. major promastigotes [5]; 10 μg/ml): 90.1 ± 6.5%
- inhibition at 1 µg/mL (human lymphocytes): 3.6%
- inhibition at 5 µg/mL (human lymphocytes): 10.2%
- inhibition at 10 µg/mL (human lymphocytes): 17%
- inhibition at 0.5 µg/mL (P. falciparum; 0.5 μg/ml): 29.9%
- inhibition at 1 µg/mL (P. falciparum; 1 μg/ml): 40.5%
- inhibition at 5 µg/mL (P. falciparum; 5 μg/ml): 64.3%
- inhibition at 10 µg/mL (P. falciparum; 10 μg/ml): 95.6%

Compound: CC(C)=CCc1cc(/C=C/C(=O)c2ccc(O)c(CC=C(C)C)c2O)ccc1O [4,2′,4′-trihydroxy-3,3′-di-(3-methylbut-2-enyl)chalcone]
- antiparasitic effect in bioassay-guided fractionation (L. major promastigotes [1]): showed major antiparasitic effects
